What was measured:
[1] = test system: fusion protein EdR5A/5B (i.e., the protein encoded by VgRXR-5A/5B); assay: Ligand-induced activation of the VgRXR-5A/5B fusion protein, luciferase reporter in COS cells without protease; assay type: cell-based
Procedure: (§1) COS African green monkey kidney cells were plated at approximately 150,000 cells/well in a 6-well plate. The next day, approximately 3.6 μg plasmid DNA was dissolved in 100 μl of Dulbecco's modified Eagle's media-Gibco BRL (DMEM), combined with 29 μl of Superfect reagent (Qiagen), and then mixed by pipetting. The mixture was incubated at room temperature for ten minutes.
(§2) The amounts of DNA typically used in each experiment was as follows: 0.6 μg of pIND-Luc, 0.6 μg of pVgRXR-5A/5B or pVgRXR-5A**5B, and 0-2.4 μg of pSRα-NS3-4A or pSRα-NS3-4A(S1165A) or pSRα.
(§3) Next 600 μl of DMEM with v/v 10% fetal bovine serum (10% FBS-DMEM) was added to the DNA mixture and mixed by pipetting. The cells in the 6-well plate were washed with 2.5 ml phosphate-buffered saline (PBS). The PBS was removed from the cells and replaced by the DNA mixture. The cells were incubated in the DNA mixture for three hours at 37° C. in a 5% CO2 incubator.
After incubation, the cells were washed with PBS. The PBS was removed and 10% FBS-DMEM was added to the cells. The cells were incubated in 10% FBS-DMEM overnight at 37° C. in a 5% CO2 incubator.
On the next day, an exogenous ligand was added to the cells to induce transcription of the reporter gene. Specifically, the 10% FBS-DMEM was aspirated off the cells and replaced with a 10% FBS-DMEM solution containing a concentration of 1-10 μM muristerone A or 1-10 μM ponasterone A (Invitrogen, United Kingdom). In some cases, a protease inhibitor dissolved in dimethylsulfoxide(DMSO) was also added to the cells for a final concentration of 1-40 μM. The cells were incubated with muristerone A or ponasterone A for 24 hours at 37° C. in a 5% CO2 incubator.
The following day, the cells were washed with PBS. The activity of the luciferase protein was measured using a luciferase assay kit (Promega). Specifically, the cells were lysed in 250 μl of Cell Culture Lysis Reagent. The cells were scraped from the plate and transferred to a microfuge tube. The extract was spun at 12,000×g for 5 seconds. Twenty microliters of each sample was added to 100 μl of Luciferase Assay Reagent. The light produced by the reaction of the luciferase with the Reagent was measured in a luminometer and was reported as relative light units (RLU).
The plasmid pIND-Luc (0.6 μg) was cotransfected with pVgRXR-5A/5B (0.6 μg) in the absence or presence of 1.8 μg of pSRαNS3-4A. On the following day, the cells were incubated with varying amounts of ponasterone A, a ligand which induces the neterodimerization of ecdysone receptor with the mammalian […], RXR. The cells were lysed and assayed for luciferase activity as described previously. The results are depicted in FIG. 7. […]

[2] = test system: pIND-Luc luciferase reporter; assay: Muristerone A-induced transactivation of pIND-Luc by expressed fusion proteins in COS cells; assay type: cell-based, African green monkey; conditions: 1 μM muristerone A
Procedure: as §1, §2, §3
After incubation, the cells were washed with PBS. The PBS was removed and 10% FBS-DMEM was added to the cells. […]
The following day, the cells were washed with PBS. The activity of the luciferase protein was measured using a luciferase assay kit (Promega). […] The light produced by the reaction of the luciferase with the Reagent was measured in a luminometer and was reported as relative light units (RLU). […]

## C[S+](C)[O-] [DMSO, dimethylsulfoxide]
[1]; DMSO concentrations up to 1% (v/v), 5 μM ponasterone A, with or without pSRαNS3-4A
  effect on ponasterone A-induced luciferase activity: little or no effect

## CC(C)CC[C@@H](O)[C@](C)(O)[C@H]1CC[C@@]2(O)C3=CC(=O)[C@@H]4C[C@@H](O)[C@@H](O)C[C@]4(C)[C@H]3CC[C@]12C [ponasterone A]
[1]; absence of the protease NS3-4A
  activation of the fusion protein: effective at activating the fusion protein
[1]; in these assays
  induction of transcription compared with muristerone A: equally effective
[1]; tested at 1, 3.3, 10, 33, 100 μM, COS cells
  ponasterone A concentration giving greatest activation of the fusion protein: 3.3 to 10 µM

B1: pVgRXR-5A(Stop)5B: control fusion protein with tandem stop codons in the 5A/5B cleavage site (SEQ ID NO:22) (protein)
chain: MAPPTDVSLGDELHLDGEDVAMAHADALDDFDLDMLGDGDSPGPGFTPHDSAPYGALDMADFEFEQMFTDALGIDEYGGKLLGTGADTEDVVCC
[2]; 24 hours, no protease, FIG. 4
  muristerone A-induced luciferase activity of the expressed fusion protein: negligible activity

B2: VgRXR: Invitrogen vector product: modified ecdysone receptor/VP16 fusion (VgEcR) plus RXR (protein)
chain: TPTTPLHLQQNLGGAGGGGIGGMGILHHANGTPNGLIGVVGGGGGVGLGVGGGGVGGLGMQHTPRSDSVNSISSGRDDLSPSSSLNGYSANESCDAKKSKKGPAPRVQEELCLVCGDRASGYHYNALTCEGCKGFFRRSVTKSAVYCCKFGRACEMDMYMRRKCQECRLKKCLAVGMRPECVVPENQCAMKRREKKAQKEKDKMTTSPSSQHGGNGSLASGGGQDFVKKEILDLMTCEPPQHATIPLLPDEILAKCQARNIPSLTYNQLAVIYKLIWYQDGYEQPSEEDLRRIMSQPDENESQTDVSFRHITEITILTVQLIVEFAKGLPAFTKIPQEDQITLLKACSSEVMMLRMARRYDHSSDSIFFANNRSYTRDSYKMAGMADNIEDLLHFCRQMFSMKVDNVEYALLTAIVIFSDRPGLEKAQLVEAIQSYYIDTLRIYILNRHCGDSMSLVFYAKLLSILTELRTLGNQNAEMCFSLKLKNRKLPKFLEEIWDVHAIPPSVQSHLQITQEENERLERAERMRASVGGAITAGIDCDSASTSAAAAAAQHQPQPQPQPQPSSLTQNDSQHQTQPQLQPQLPPQLQGQLQPQLQPQLQTQLQPQIQPQPQLLPVSAPVPASVTAPGSLSAVSTSSEYMGGSAAIGPITPATTSSITAAVTASSTTSAVPMGNGVGVGVGVGGNVSMYANAQTAMALMGVALHSHQEQLIGGVAVKSEHSTTA
modifications: left off: large carriers
notes: Invitrogen vector product: modified ecdysone receptor/VP16 fusion (VgEcR) plus RXR
[2]; increasing amounts of pSRαNS3-4A
  change in luciferase activity when coexpressed with the protease NS3-4A: little or no change

Source: patent publication US6528276B1, “Fusion proteins, DNA molecules, vectors, and host cells useful for measuring protease activity” (priority 1998, dated 2003)
